{
  "source": "patent US10888087B2",
  "about": "“Lactam solubility” (Conopco, Inc., priority 2015, dated 2021)",
  "experiment": "Screening of NIS: lactam solubility in water or water + non-ionic surfactant additive, quantified by HPLC",
  "format": "physicochemical",
  "set-up": "key to Solubility Increase vs water alone: fold: lactam dissolved in water+additive / lactam dissolved in water",
  "details": "for Mean Lactam Level in Solution (ppm): 48 hours agitation",
  "description": "The following representative example uses 4-(4-chlorophenyl)-5-methylene-pyrrol-2-one.\nExcess solid lactam (˜3 mg) was placed in a Whatman® Mini Uniprep sample vial, fitted with a 0.45 um nylon filter. Water or water+additive (NIS) (500 μL) was added the mixture shaken and tapped briefly to initially disperse the solid and the mixture then agitated for 48 hours using a plate shaker fitted with a vial holder. After 48 hours, the solid was removed from the system by pressing down the plunger with integral filter on the vial. This removes the solid and provides filtered solution within the inner chamber which is then ready for analysis.\nThe level of lactam dissolved in solution was quantified using HPLC analysis. Samples were analysed on an Agilent 1200® series HPLC fitted with a Thermo Hypersil Gold® C18 column (15×2.1×3 μm), isocratic elution with 60/40 methanol/water (+0.1% Formic Acid), 0.4 mL/min flow rate, using a DAD detector at 285 nm. The lactam tested has a retention time of ˜2.8 minutes.\nFor each additive, the absolute level of lactam in solution was measured and reported as an increase in solubility of lactam relative to water alone.\nEach test surfactant solution was tested in triplicate and the mean value of lactam in solution calculated. Values of solubility were quoted as the improvement in aqueous solubility vs water alone (i.e. mean level of lactam dissolved in water+solvent/mean level of lactam dissolved in water) to allow comparison between screens conducted on different days.",
  "key": {"[1]": {"details": "Neodol 25-7, 0% additive in water"}, "[2]": {"details": "Neodol 25-7, 0.5% additive in water"}, "[3]": {"details": "Neodol 25-7, 1% additive in water"}, "[4]": {"details": "Neodol 25-7, 2% additive in water"}, "[5]": {"details": "Neodol 25-7, 5% additive in water"}, "[6]": {"details": "Neodol 25-7, 10% additive in water"}, "[7]": {"details": "Neodol 25-7, 20% additive in water"}, "[8]": {"details": "Tween 20, 0.5% additive in water"}, "[9]": {"details": "Tween 20, 10% additive in water"}, "[10]": {"details": "Tween 20, 20% additive in water"}, "[11]": {"details": "Tween 80, 0.5% additive in water"}, "[12]": {"details": "Tween 80, 10% additive in water"}},
  "data": [
    {"smiles": "C=C1NC(=O)C=C1c1ccc(Cl)cc1", "note": "[Ref. 488, 4-(4-chlorophenyl)-5-methylene-pyrrol-2-one]", "values": [
      {"measurement": "Solubility Increase vs water alone", "setting": "[1]", "value": 1.0},
      {"measurement": "Mean Lactam Level in Solution (ppm)", "setting": "[1]", "value": 2.4, "unit": "ppm"},
      {"measurement": "Solubility Increase vs water alone", "setting": "[2]", "value": 48.3},
      {"measurement": "Mean Lactam Level in Solution (ppm)", "setting": "[2]", "value": 116.0, "unit": "ppm"},
      {"measurement": "Solubility Increase vs water alone", "setting": "[3]", "value": 84.7},
      {"measurement": "Mean Lactam Level in Solution (ppm)", "setting": "[3]", "value": 203.2, "unit": "ppm"},
      {"measurement": "Solubility Increase vs water alone", "setting": "[4]", "value": 162.7},
      {"measurement": "Mean Lactam Level in Solution (ppm)", "setting": "[4]", "value": 390.4, "unit": "ppm"},
      {"measurement": "Solubility Increase vs water alone", "setting": "[5]", "value": 251.4},
      {"measurement": "Mean Lactam Level in Solution (ppm)", "setting": "[5]", "value": 603.3, "unit": "ppm"},
      {"measurement": "Solubility Increase vs water alone", "setting": "[6]", "value": 255.2},
      {"measurement": "Mean Lactam Level in Solution (ppm)", "setting": "[6]", "value": 612.5, "unit": "ppm"},
      {"measurement": "Solubility Increase vs water alone", "setting": "[7]", "value": 189.8},
      {"measurement": "Mean Lactam Level in Solution (ppm)", "setting": "[7]", "value": 455.6, "unit": "ppm"},
      {"measurement": "Solubility Increase vs water alone", "setting": "Tween 20, 0% additive in water", "value": 1.0},
      {"measurement": "Mean Lactam Level in Solution (ppm)", "setting": "Tween 20, 0% additive in water", "value": 1.7, "unit": "ppm"},
      {"measurement": "Solubility Increase vs water alone", "setting": "[8]", "value": 36.9},
      {"measurement": "Mean Lactam Level in Solution (ppm)", "setting": "[8]", "value": 61.6, "unit": "ppm"},
      {"measurement": "Solubility Increase vs water alone", "setting": "Tween 20, 1% additive in water", "value": 70.9},
      {"measurement": "Mean Lactam Level in Solution (ppm)", "setting": "Tween 20, 1% additive in water", "value": 118.3, "unit": "ppm"},
      {"measurement": "Solubility Increase vs water alone", "setting": "Tween 20, 2% additive in water", "value": 135.8},
      {"measurement": "Mean Lactam Level in Solution (ppm)", "setting": "Tween 20, 2% additive in water", "value": 226.5, "unit": "ppm"},
      {"measurement": "Solubility Increase vs water alone", "setting": "Tween 20, 5% additive in water", "value": 310.7},
      {"measurement": "Mean Lactam Level in Solution (ppm)", "setting": "Tween 20, 5% additive in water", "value": 518.3, "unit": "ppm"},
      {"measurement": "Solubility Increase vs water alone", "setting": "[9]", "value": 497.3},
      {"measurement": "Mean Lactam Level in Solution (ppm)", "setting": "[9]", "value": 829.6, "unit": "ppm"},
      {"measurement": "Solubility Increase vs water alone", "setting": "[10]", "value": 927.0},
      {"measurement": "Mean Lactam Level in Solution (ppm)", "setting": "[10]", "value": 1546.3, "unit": "ppm"},
      {"measurement": "Solubility Increase vs water alone", "setting": "Tween 80, 0% additive in water", "value": 1.00},
      {"measurement": "Mean Lactam Level in Solution (ppm)", "setting": "Tween 80, 0% additive in water", "value": 6.0, "unit": "ppm"},
      {"measurement": "Solubility Increase vs water alone", "setting": "[11]", "value": 6.92},
      {"measurement": "Mean Lactam Level in Solution (ppm)", "setting": "[11]", "value": 41.5, "unit": "ppm"},
      {"measurement": "Solubility Increase vs water alone", "setting": "Tween 80, 1% additive in water", "value": 12.51},
      {"measurement": "Mean Lactam Level in Solution (ppm)", "setting": "Tween 80, 1% additive in water", "value": 75.0, "unit": "ppm"},
      {"measurement": "Solubility Increase vs water alone", "setting": "Tween 80, 2% additive in water", "value": 20.56},
      {"measurement": "Mean Lactam Level in Solution (ppm)", "setting": "Tween 80, 2% additive in water", "value": 123.3, "unit": "ppm"},
      {"measurement": "Solubility Increase vs water alone", "setting": "Tween 80, 5% additive in water", "value": 34.74},
      {"measurement": "Mean Lactam Level in Solution (ppm)", "setting": "Tween 80, 5% additive in water", "value": 208.4, "unit": "ppm"},
      {"measurement": "Solubility Increase vs water alone", "setting": "[12]", "value": 65.23},
      {"measurement": "Mean Lactam Level in Solution (ppm)", "setting": "[12]", "value": 391.4, "unit": "ppm"}
    ]}
  ]
}
